Measurements: patent publication US20060063938A1, “Compounds to treat hiv infection and aids” (priority 2001, published 2006)
Several values for one entry are separate records, joined by “and”; a condition that tells them apart may be missing. Equal entries are not always repeated. Entries after “also recorded” stand apart in the source; their conditions may differ. Where two headings read alike, the source gives them in different places.

What was measured:
HIV-1 [1] = assay: microbe, parasite or virus in culture; type: cell-based; conditions: for IC50: read-out: 50% Inhibitory Conc. (IC50)
HIV-1 integrase = HIV-1 integrase (Human immunodeficiency virus type 1 group M subtype B, UniProt P04585); assay: In vitro HIV-1 integrase assay (3′-processing and strand transfer) with 21-mer U5 LTR oligonucleotide; type: biochemical
HIV-1 [2] = conditions: read-out: IC50 reported previously; Hazuda et al. 2000; cited from earlier work
[3] = test system: replication competent HIV-1; assay: Inhibition of replication competent HIV-1 in H9 cells, p24 antigen ELISA; type: cell-based; conditions: 25 μM B compound, 15 days
Protocol: FIG. 6. Determination of inhibition of replication competent HIV-1 by B compound. HIV-1 infection was carried out in the presence of 25 μM B compound, 100 nM AZT, or in the absence of any drugs. Uninfected H9 culture was used as a negative control. […] Each time point of each culture was evaluated in duplicate.
Inhibition of replication competent HIV-1 by B compound was evaluated at 25 μM concentration. 293T cells were transfected with pNL4-3, a plasmid that encodes full HIV-1 genome. Virus harvested from the transfected cells was used to infect H9 target cells. […] In addition, H9 infected cells were cultured in the presence of 100 nM AZT as a control.
H9 T-lymphoid cells (ATCC) were maintained in the presence of RPMI 1640 Medium (Cellgro), 20% fetal calf serum (HyClone Laboratories), penicillin (50 U/ml; Gibco) and streptomycin (50 μg/ml; Gibco), 2 μg/ml Polybrene (Sigma). […] After 4 hours of infection, H9 cells were washed, resuspended in 2 ml of cell culture medium containing an appropriate drug and maintained in 35-mm-diameter dish. Cultures were fed every 3 days by removing 1 ml of cell culture suspension and replacing with equivalent amount of fresh medium containing an appropriate drug.

293T cells = assay: Cell proliferation inhibition (XTT) cell toxicity assay; type: cell-based
Protocol: To ensure that inhibition of luciferase activity in the presence of the compounds was indeed due to inhibition of HIV-1 infection and not due to the toxicity of these compounds to the target cells, we performed a cell toxicity assay in the presence of the same concentrations of compounds that were used for IC50 determination (FIG. 5).
Cell proliferation inhibition assay. The effects of inhibitors on cell toxicity were determined by using Cell Proliferation Kit II (XTT) (Roche Molecular Biochemicals). Target cells (293T) were plated at a density of 1×10^3 per well of 96-well plate. Twenty-four hours later cells were treated with an inhibitor for 36 hours. After inhibitor was removed, cells were incubated for additional 48 hours and then were stained with 50 μL of the XTT labeling mix per well (Roche Molecular Biochemicals). Spectrophotometrical absorbance of the samples was measured 4 hours after addition of the labeling mix at wavelengths of 450 nm with a reference point at 700 nm in a 96-well plate reader.

[4] = strand transfer step of integration reaction, read-out: IC50 Strand transfer
[5] = Human immunodeficiency virus 1, HEK-293T
[6] = 3′-processing step of integration reaction, read-out: IC50 3′-Processing

Row | Compound | Luciferase Activity Relative to No Drug Control (Avg ± S.E.) (HIV-1 [1]) | IC50 (HIV-1 integrase; [4]) | IC50 (HIV-1 integrase; [6]) [µM] | also measured
1 | COc1ccc(Cn2nnnc2C(O)=CC(=O)c2c[nH]c3ccc(Cl)cc23)cc1 [Compound P20, reference compound] | 133 ± 35% | 1.28 ± 0.38 µM |  | IC50 (HIV-1 integrase; 3′-processing step of integration reaction, listed as 10, read-out: IC50 3′-Processing): 7.2 µM and 7.5 µM
2 | [N-]=[N+]=NCc1cc(CN=[N+]=[N-])cc(C(=O)/C=C(\O)C(=O)O)c1 [Compound A, 4-(3,5-bis-azidomethyl-phenyl)-2-hydroxy-4-oxo-but-2-enoic acid] | 5 ± 6% | 2 µM and 2.8 µM | > 100 | IC50 (HIV-1 [1]; [5]): 1.6 µM
3 | O=C(C=C(O)c1nnn[nH]1)c1c[nH]c2ccc(F)cc12 [Compound P31, reference compound] | 61 ± 17% |  |  | IC50 (HIV-1 integrase; 3′-processing step of integration reaction, listed as 14, read-out: IC50 3′-Processing): 82 µM; IC50 (HIV-1 integrase; strand transfer step of integration reaction, listed as 14, read-out: IC50 Strand transfer): 6.56 ± 0.81 µM
4 | O=C(O)C(O)=CC(=O)c1ccc(Oc2ccccc2)cc1 [Compound F] | 261 ± 5% |  | > 100 | IC50 (HIV-1 integrase; strand transfer step of integration reaction, listed as 16, read-out: IC50 Strand transfer): 7.8 µM and 15 µM
5 | O=C(C=C(O)c1nnn[nH]1)c1c[nH]c2ccccc12 [Compound P4, reference compound] | 116 ± 27% |  | > 100 | IC50 (HIV-1 integrase; strand transfer step of integration reaction, listed as 6, read-out: IC50 Strand transfer): 1.9 µM and 2 µM
6 | O=C(O)C(O)=CC(=O)c1cc(OCc2ccccc2)cc(OCc2ccccc2)c1 [Compound P10, reference compound] | 7% and 7 ± 2% | 1.03 ± 0.25 µM | > 1000 | IC50 (HIV-1 [2]): 2.5 µM; IC50 (HIV-1 [1]): 2.3 µM; effect on 3′-processing step (HIV-1 integrase; concentrations up to the millimolar range): unaffected; IC50 for the strand transfer reaction (HIV-1 integrase; strand transfer): in the micromolar range
7 | O=C(C=Cc1ccc(O)c(O)c1)Nc1cccc(C(=O)C=C(O)C(=O)O)c1 [Compound G] | 24 ± 8% | 4.7 µM | 9 | IC50 (HIV-1 [1]): 2.2 µM
8 | [N-]=[N+]=NCc1cccc(C(=O)C=C(O)C(=O)O)c1 [Compound B, 4-(3-azidomethyl-phenyl)-2-hydroxy-4-oxo-but-2-enoic acid] | 15 ± 7% | 1.53 ± 0.27 µM | > 100 | HIV-1 replication (p24 antigen) in infected H9 culture [3]: no significant amounts of HIV-1 replication was detected; also recorded: strongly inhibited replication competent HIV-1; IC50 (HIV-1 [1]; [5]): 0.5 µM
9 | COc1ccc(Cn2nnnc2C(O)=CC(=O)c2c[nH]c3ccccc23)cc1 [Compound P23, reference compound] | 104 ± 25% | 6.9 µM | > 100 | 
10 | [N-]=[N+]=NCc1ccc(C(=O)C=C(O)C(=O)O)cc1CN=[N+]=[N-] [Compound C] | 36 ± 7% |  | > 100 | IC50 (HIV-1 [1]): 19 µM; IC50 (HIV-1 integrase; strand transfer step of integration reaction, listed as 4, read-out: IC50 Strand transfer): 0.26 µM and 0.15 µM
11 | [N-]=[N+]=Nc1cccc(C(=O)C=C(O)C(=O)O)c1 [Compound D, 4-(3-azido-phenyl)-2-hydroxy-4-oxo-but-2-enoic acid] | 137 ± 12% | 5.3 µM and 5.2 µM | > 100 | concentration giving 50% inhibition of cell proliferation (293T cells): approximately 19 μM
12 | O=C(O)C(O)=CC(=O)c1cccc(OCc2ccccc2)c1 [Compound H] | 14 ± 3% | 0.35 ± 0.13 µM |  | IC50 (HIV-1 [1]): 0.6 µM; IC50 (HIV-1 integrase; 3′-processing step of integration reaction, listed as 18, read-out: IC50 3′-Processing): 65 µM and 100 µM
13 | Cc1cc(C)cc(C(=O)C=C(O)C(=O)O)c1 [Compound E] | 99 ± 14% |  | > 100 | antiviral activity in single cycle assay (HIV-1 [1]): did not show antiviral activity; also recorded: showed no antiviral activity; IC50 (HIV-1 integrase; strand transfer step of integration reaction, listed as 15, read-out: IC50 Strand transfer): 9 µM and 11 µM
14 | O=C(O)C(O)=CC(=O)c1cccc(C(=O)c2ccccc2)c1 [Compound I] | 19 ± 2% |  | > 100 | IC50 (HIV-1 integrase; strand transfer step of integration reaction, listed as 19, read-out: IC50 Strand transfer): 2.7 µM and 2.1 µM
15 | O=C(C=C(O)c1nnn[nH]1)c1c[nH]c2ccc(F)cc12 [Compound P18, reference compound] | 59 ± 13% |  |  | IC50 (HIV-1 integrase; 3′-processing step of integration reaction, listed as 9, read-out: IC50 3′-Processing): 79 µM; IC50 (HIV-1 integrase; strand transfer step of integration reaction, listed as 9, read-out: IC50 Strand transfer): 1.8 µM
16 | COc1ccc(Cn2nnnc2C(O)=CC(=O)c2c[nH]c3ccc(F)cc23)cc1 [Compound P22, reference compound] | 98 ± 28% |  |  | IC50 (HIV-1 integrase; 3′-processing step of integration reaction, listed as 11, read-out: IC50 3′-Processing): 8.1 µM and 5.5 µM; IC50 (HIV-1 integrase; strand transfer step of integration reaction, listed as 11, read-out: IC50 Strand transfer): 2.2 µM and 1.6 µM
